Laboratory results from ChEMBL document CHEMBL4818984, “Kojic acid-natural product conjugates as mushroom tyrosinase inhibitors” (Eur J Med Chem, 2020).
Values belong to the molecule of their own block, whether it stands above or below them. The source made the active and inactive calls. The rule behind the calls is not given here.

Key:
[1] = biological target: T1, Tyrosinase (Agaricus bisporus, UniProt O42713); assay: Inhibition of mushroom tyrosinase assessed as reduction in dopachrome formation using L-DOPA as substrate by ELISA
T1 sequence (O42713 whole entry): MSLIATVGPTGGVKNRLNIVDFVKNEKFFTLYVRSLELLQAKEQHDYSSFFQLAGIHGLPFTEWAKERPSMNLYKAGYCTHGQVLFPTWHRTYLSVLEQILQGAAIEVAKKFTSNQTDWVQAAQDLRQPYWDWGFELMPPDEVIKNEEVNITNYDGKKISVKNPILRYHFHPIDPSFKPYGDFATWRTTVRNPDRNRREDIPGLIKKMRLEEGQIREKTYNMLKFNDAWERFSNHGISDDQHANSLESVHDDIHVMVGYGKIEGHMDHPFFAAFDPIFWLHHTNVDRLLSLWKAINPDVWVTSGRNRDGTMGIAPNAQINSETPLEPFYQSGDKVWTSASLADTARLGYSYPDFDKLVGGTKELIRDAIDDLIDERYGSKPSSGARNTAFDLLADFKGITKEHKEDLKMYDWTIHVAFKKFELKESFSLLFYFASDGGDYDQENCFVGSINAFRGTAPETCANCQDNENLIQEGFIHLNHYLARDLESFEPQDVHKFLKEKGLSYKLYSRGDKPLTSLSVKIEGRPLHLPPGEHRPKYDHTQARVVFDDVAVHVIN

[2] = Antioxidant activity assessed as DPPH radical scavenging activity at 10 uM; format: functional
[3] = biological target: T1, Tyrosinase; assay: Inhibition of mushroom tyrosinase using L-tyrosine as substrate by HPLC analysis
[4] = biological target: T2, Tyrosinase (Homo sapiens, UniProt P14679); assay: Inhibition of tyrosinase (unknown origin)
T2 sequence (P14679 whole entry): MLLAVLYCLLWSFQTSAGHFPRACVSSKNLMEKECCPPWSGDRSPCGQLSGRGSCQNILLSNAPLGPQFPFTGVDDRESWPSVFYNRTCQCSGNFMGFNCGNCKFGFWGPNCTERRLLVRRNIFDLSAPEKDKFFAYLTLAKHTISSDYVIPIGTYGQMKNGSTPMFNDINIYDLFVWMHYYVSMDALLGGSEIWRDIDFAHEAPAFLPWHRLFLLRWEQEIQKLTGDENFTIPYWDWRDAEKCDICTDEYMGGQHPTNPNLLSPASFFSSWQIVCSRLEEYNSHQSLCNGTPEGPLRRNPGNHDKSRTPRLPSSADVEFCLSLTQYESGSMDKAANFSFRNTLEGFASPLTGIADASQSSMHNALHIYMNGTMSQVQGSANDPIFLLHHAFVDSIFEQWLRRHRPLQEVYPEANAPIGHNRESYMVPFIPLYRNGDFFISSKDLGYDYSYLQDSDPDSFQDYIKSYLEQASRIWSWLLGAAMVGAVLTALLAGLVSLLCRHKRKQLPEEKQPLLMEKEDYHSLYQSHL

[5] = biological target: T3, Tyrosinase (Agaricus bisporus) (UniProt O42713); assay: Potency index, ratio of kojic acid IC50 to compound IC50 for inhibition of mushroom tyrosinase using L-DOPA as substrate by ELISA
T3 sequence (whole entry): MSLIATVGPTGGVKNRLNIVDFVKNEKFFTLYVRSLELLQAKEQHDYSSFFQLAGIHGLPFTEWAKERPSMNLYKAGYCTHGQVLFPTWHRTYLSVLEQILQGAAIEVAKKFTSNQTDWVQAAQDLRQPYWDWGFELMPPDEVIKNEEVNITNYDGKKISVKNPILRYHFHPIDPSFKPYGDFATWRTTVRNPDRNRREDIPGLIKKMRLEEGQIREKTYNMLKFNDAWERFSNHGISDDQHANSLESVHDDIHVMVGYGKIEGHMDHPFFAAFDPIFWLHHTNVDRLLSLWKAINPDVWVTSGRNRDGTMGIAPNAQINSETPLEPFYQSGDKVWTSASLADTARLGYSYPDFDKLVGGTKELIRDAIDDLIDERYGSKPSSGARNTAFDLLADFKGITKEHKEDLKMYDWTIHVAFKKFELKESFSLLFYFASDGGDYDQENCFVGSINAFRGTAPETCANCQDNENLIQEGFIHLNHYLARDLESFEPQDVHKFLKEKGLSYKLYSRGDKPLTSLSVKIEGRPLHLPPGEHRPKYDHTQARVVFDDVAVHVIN

[6] = biological target: T1, Tyrosinase; assay: Competitive inhibition of mushroom tyrosinase using L-DOPA as substrate by Lineweaver-Burk double reciprocal plot analysis
[7] = biological target: T3, Tyrosinase (Agaricus bisporus); assay: Non-competitive inhibition of mushroom tyrosinase using L-DOPA as substrate by Lineweaver-Burk double reciprocal plot analysis
[8] = biological target: T3, Tyrosinase (Agaricus bisporus); assay: Inhibition of mushroom tyrosinase using L-DOPA as substrate at 0.5 uM in presence of 0.005 to 1.2 mM Cu2+ by ELISA
[9] = system: B16-F10; assay: Antimelanogenic activity against mouse B16-F10 cells assessed as reduction of melanin content at 5 uM measured after 24 hrs by microplate reader assay; format: functional, cell-based
[10] = system: B16-F10; assay: cells; conditions: Mus musculus
Description: Cytotoxicity against mouse B16-F10 cells assessed as reduction in cell viability by MTT assay

[11] = system: HFF; assay: cells; conditions: Homo sapiens
Description: Cytotoxicity against human HFF cells assessed as reduction in cell viability by MTT assay

[12] = biological target: T1, Tyrosinase; assay: Inhibition of mushroom tyrosinase using L-tyrosine as substrate measured after 15 mins by microplate reader analysis
[13] = biological target: T1, Tyrosinase; assay: Inhibition of mushroom tyrosinase using L-tyrosine as substrate measured after 30 mins by microplate reader analysis
[14] = compound: COc1cc(C(C)=O)ccc1OCc1cn(Cc2cc(=O)c(O)co2)nn1; assay: (§1) Mixed-type of inhibition of mushroom tyrosinase assessed as Vmax using L-DOPA as substrate at 0.025 uM measured at 475 nm by Lineweaver-Burk double reciprocal plot analysis (reference value: […] to […] deltaOD/min); conditions: Agaricus bisporus
[15] = compound: Cc1ccc(C(C)C)cc1OCc1cn(Cc2cc(=O)c(O)co2)nn1; assay: as §1; conditions: Agaricus bisporus
[16] = compound: O=c1cc(OCc2cn(Cc3cc(=O)c(O)co3)nn2)c2ccccc2o1; assay: as §1; conditions: Agaricus bisporus
[17] = compound: COc1cc(C(C)=O)ccc1OCc1cn(Cc2cc(=O)c(O)co2)nn1; assay: (§2) Mixed-type of inhibition of mushroom tyrosinase assessed as Vmax using L-DOPA as substrate at 0.05 uM measured at 475 nm by Lineweaver-Burk double reciprocal plot analysis (reference value: […] to […] deltaOD/min); conditions: Agaricus bisporus
[18] = compound: Cc1ccc(C(C)C)cc1OCc1cn(Cc2cc(=O)c(O)co2)nn1; assay: as §2; conditions: Agaricus bisporus
[19] = compound: O=c1cc(OCc2cn(Cc3cc(=O)c(O)co3)nn2)c2ccccc2o1; assay: as §2; conditions: Agaricus bisporus
[20] = compound: COc1cc(C(C)=O)ccc1OCc1cn(Cc2cc(=O)c(O)co2)nn1; assay: (§3) Mixed-type of inhibition of mushroom tyrosinase assessed as Vmax using L-DOPA as substrate at 0.1 uM measured at 475 nm by Lineweaver-Burk double reciprocal plot analysis (reference value: […] to […] deltaOD/min); conditions: Agaricus bisporus
[21] = compound: Cc1ccc(C(C)C)cc1OCc1cn(Cc2cc(=O)c(O)co2)nn1; assay: as §3; conditions: Agaricus bisporus
[22] = compound: O=c1cc(OCc2cn(Cc3cc(=O)c(O)co3)nn2)c2ccccc2o1; assay: as §3; conditions: Agaricus bisporus
[23] = compound: COc1cc(C(C)=O)ccc1OCc1cn(Cc2cc(=O)c(O)co2)nn1; assay: (§4) Mixed-type of inhibition of mushroom tyrosinase assessed as Km using L-DOPA as substrate at 0.025 uM by Lineweaver-Burk double reciprocal plot analysis (reference value: […] to […] mM); conditions: Agaricus bisporus
[24] = compound: Cc1ccc(C(C)C)cc1OCc1cn(Cc2cc(=O)c(O)co2)nn1; assay: as §4; conditions: Agaricus bisporus
[25] = compound: O=c1cc(OCc2cn(Cc3cc(=O)c(O)co3)nn2)c2ccccc2o1; assay: as §4; conditions: Agaricus bisporus
[26] = compound: COc1cc(C(C)=O)ccc1OCc1cn(Cc2cc(=O)c(O)co2)nn1; assay: (§5) Mixed-type of inhibition of mushroom tyrosinase assessed as Km using L-DOPA as substrate at 0.05 uM by Lineweaver-Burk double reciprocal plot analysis (reference value: […] to […] mM); conditions: Agaricus bisporus
[27] = compound: Cc1ccc(C(C)C)cc1OCc1cn(Cc2cc(=O)c(O)co2)nn1; assay: as §5; conditions: Agaricus bisporus
[28] = compound: O=c1cc(OCc2cn(Cc3cc(=O)c(O)co3)nn2)c2ccccc2o1; assay: as §5; conditions: Agaricus bisporus
[29] = compound: COc1cc(C(C)=O)ccc1OCc1cn(Cc2cc(=O)c(O)co2)nn1; assay: (§6) Mixed-type of inhibition of mushroom tyrosinase assessed as Km using L-DOPA as substrate at 0.1 uM by Lineweaver-Burk double reciprocal plot analysis (reference value: […] to […] mM); conditions: Agaricus bisporus
[30] = compound: Cc1ccc(C(C)C)cc1OCc1cn(Cc2cc(=O)c(O)co2)nn1; assay: as §6; conditions: Agaricus bisporus
[31] = compound: O=c1cc(OCc2cn(Cc3cc(=O)c(O)co3)nn2)c2ccccc2o1; assay: as §6; conditions: Agaricus bisporus
[32] = compound: O=c1cc(OCc2cn(Cc3cc(=O)c(O)co3)nn2)c2ccccc2o1; assay: Mixed-type of inhibition of mushroom tyrosinase assessed as Vmax using L-DOPA as substrate at 0.5 uM measured at 475 nm by Lineweaver-Burk double reciprocal plot analysis (reference value: […] deltaOD/min); conditions: Agaricus bisporus

IC50 [1]: 1.07 µM
Molecule: C=CCc1ccc(OCc2cn(Cc3cc(=O)c(O)co3)nn2)c(OC)c1
Activity [2]: inactive

IC50 [4]: 33.3 µM
Molecule: C/C=C/c1ccc(O)c(OC)c1

IC50 [1]: 1.21 µM
Molecule: CC(=O)c1ccc(OCc2cn(Cc3cc(=O)c(O)co3)nn2)cc1
Activity [2]: inactive

IC50 [1]: 0.06 µM
Ratio IC50 [5]: 133
Molecule: O=c1cc(Cn2cc(COc3ccc4c(c3)OCO4)nn2)occ1O
Activity [2]: inactive

IC50 [1]: 3.13 µM
Molecule: O=C(O)c1ccc(OCc2cn(Cc3cc(=O)c(O)co3)nn2)cc1
Activity [2]: inactive

IC50 [1]: 0.02 µM
Ki [6]: 0.04 µM
Kis [7]: 0.12 µM
inhibition [8]: inactive
Ratio IC50 [5]: > 460
IC50 [10]: 143 µM
Molecule: O=c1cc(OCc2cn(Cc3cc(=O)c(O)co3)nn2)c2ccccc2o1
Activity [2]: inactive
Activity [9]: Active
IC50 [11]: 194 µM

IC50 [1]: 0.23 µM
Molecule: O=c1ccc2ccc(OCc3cn(Cc4cc(=O)c(O)co4)nn3)cc2o1
Activity [2]: inactive

IC50 [1]: 0.69 µM
Molecule: Cc1ccc(C(C)C)c(OCc2cn(Cc3cc(=O)c(O)co3)nn2)c1
Activity [2]: inactive

IC50 [1]: 0.52 µM
Molecule: C/C=C/c1ccc(OCc2cn(Cc3cc(=O)c(O)co3)nn2)c(OC)c1
Activity [2]: inactive

IC50 [1]: 0.03 µM
Ki [6]: 0.07 µM
Kis [7]: 0.19 µM
Ratio IC50 [5]: 133
IC50 [10]: 416 µM
Molecule: COc1cc(C(C)=O)ccc1OCc1cn(Cc2cc(=O)c(O)co2)nn1
Activity [2]: inactive
IC50 [11]: 213 µM

IC50 [1]: 1.95 µM
Molecule: COc1ccc(C=O)cc1OCc1cn(Cc2cc(=O)c(O)co2)nn1
Activity [2]: inactive

Continued, molecule first:

Molecule: COc1ccc(C=O)cc1O [ISOVANILLIN]
IC50 [3]: > 500 µM

Molecule: COc1cc(C=O)cc(OC)c1OCc1cn(Cc2cc(=O)c(O)co2)nn1
IC50 [1]: 3.75 µM
Activity [2]: inactive

Molecule: Cc1ccc(C(C)C)cc1OCc1cn(Cc2cc(=O)c(O)co2)nn1
IC50 [1]: 0.07 µM
Ki [6]: 0.09 µM
Kis [7]: 0.21 µM
Activity [2]: inactive
Activity [9]: Active
Ratio IC50 [5]: 133
IC50 [10]: 408 µM
IC50 [11]: 193 µM

Molecule: COc1cc(C=O)ccc1OCc1cn(Cc2cc(=O)c(O)co2)nn1
IC50 [1]: 1.99 µM
Activity [2]: inactive

Molecule: C=CCc1ccc(O)c(OC)c1 [EUGENOL]
IC50 [12]: 923 µM

Molecule: O=Cc1ccc(OCc2cn(Cc3cc(=O)c(O)co3)nn2)cc1
IC50 [1]: 1.05 µM
Activity [2]: inactive

Molecule: Oc1ccc2c(c1)OCO2
IC50 [13]: 6.7 µM

Molecule: COC(=O)c1ccc(OCc2cn(Cc3cc(=O)c(O)co3)nn2)cc1
IC50 [1]: 0.46 µM
Activity [2]: inactive

Molecule: COc1cc(C=O)ccc1O [VANILLIN]
IC50 [12]: 4100 µM

B1: Tyrosinase (Agaricus bisporus), O42713 (protein)
chain: MSLIATVGPTGGVKNRLNIVDFVKNEKFFTLYVRSLELLQAKEQHDYSSFFQLAGIHGLPFTEWAKERPSMNLYKAGYCTHGQVLFPTWHRTYLSVLEQILQGAAIEVAKKFTSNQTDWVQAAQDLRQPYWDWGFELMPPDEVIKNEEVNITNYDGKKISVKNPILRYHFHPIDPSFKPYGDFATWRTTVRNPDRNRREDIPGLIKKMRLEEGQIREKTYNMLKFNDAWERFSNHGISDDQHANSLESVHDDIHVMVGYGKIEGHMDHPFFAAFDPIFWLHHTNVDRLLSLWKAINPDVWVTSGRNRDGTMGIAPNAQINSETPLEPFYQSGDKVWTSASLADTARLGYSYPDFDKLVGGTKELIRDAIDDLIDERYGSKPSSGARNTAFDLLADFKGITKEHKEDLKMYDWTIHVAFKKFELKESFSLLFYFASDGGDYDQENCFVGSINAFRGTAPETCANCQDNENLIQEGFIHLNHYLARDLESFEPQDVHKFLKEKGLSYKLYSRGDKPLTSLSVKIEGRPLHLPPGEHRPKYDHTQARVVFDDVAVHVIN
Vmax [14]: 0.232 deltaOD/min
Vmax [15]: 0.241 deltaOD/min
Vmax [16]: 0.21 deltaOD/min
Vmax [17]: 0.208 deltaOD/min
Vmax [18]: 0.219 deltaOD/min
Vmax [19]: 0.176 deltaOD/min
Vmax [20]: 0.183 deltaOD/min
Vmax [21]: 0.192 deltaOD/min
Vmax [22]: 0.122 deltaOD/min
Km [23]: 1580 µM
Km [24]: 1520 µM
Km [25]: 1710 µM
Km [26]: 1920 µM
Km [27]: 1830 µM
Km [28]: 2020 µM
Km [29]: 2110 µM
Km [30]: 2020 µM
Km [31]: 2250 µM
Vmax [32]: 0.021 deltaOD/min
